Each structure is given as a SMILES string.

For this test, the target named is T1, NCCcryo (Homo sapiens, UniProt P55017, E240A).
T1 sequence (P55017 132-1021 E240A): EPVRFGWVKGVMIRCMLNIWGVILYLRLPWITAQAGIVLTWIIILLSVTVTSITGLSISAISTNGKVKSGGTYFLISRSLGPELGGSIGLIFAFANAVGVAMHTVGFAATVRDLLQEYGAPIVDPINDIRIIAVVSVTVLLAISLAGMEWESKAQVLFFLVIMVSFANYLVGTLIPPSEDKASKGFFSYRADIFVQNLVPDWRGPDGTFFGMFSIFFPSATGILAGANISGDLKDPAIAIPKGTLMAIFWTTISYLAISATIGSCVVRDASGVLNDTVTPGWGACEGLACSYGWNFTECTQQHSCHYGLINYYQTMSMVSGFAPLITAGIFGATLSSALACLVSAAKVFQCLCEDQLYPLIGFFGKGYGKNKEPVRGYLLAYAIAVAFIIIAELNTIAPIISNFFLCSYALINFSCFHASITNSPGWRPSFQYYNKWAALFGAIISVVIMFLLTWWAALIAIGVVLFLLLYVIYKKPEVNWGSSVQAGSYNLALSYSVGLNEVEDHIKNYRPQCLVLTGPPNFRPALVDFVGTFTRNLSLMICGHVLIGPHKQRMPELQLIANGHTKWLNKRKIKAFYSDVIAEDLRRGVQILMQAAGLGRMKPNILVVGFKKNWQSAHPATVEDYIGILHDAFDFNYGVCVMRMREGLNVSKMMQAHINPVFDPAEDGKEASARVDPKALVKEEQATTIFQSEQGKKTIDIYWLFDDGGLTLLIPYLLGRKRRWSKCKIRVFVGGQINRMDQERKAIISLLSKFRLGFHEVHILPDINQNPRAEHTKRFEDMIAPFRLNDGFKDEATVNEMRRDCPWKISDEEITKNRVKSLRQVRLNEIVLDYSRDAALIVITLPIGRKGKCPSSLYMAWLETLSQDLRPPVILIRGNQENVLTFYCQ
T1 sequence (A0A0G2KTI4 1-202 E76K partner): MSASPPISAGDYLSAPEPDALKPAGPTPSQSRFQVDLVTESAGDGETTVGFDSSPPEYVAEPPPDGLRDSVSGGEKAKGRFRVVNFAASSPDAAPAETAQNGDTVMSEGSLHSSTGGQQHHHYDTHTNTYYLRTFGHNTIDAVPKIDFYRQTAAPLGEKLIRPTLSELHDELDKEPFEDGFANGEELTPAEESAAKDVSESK
Description: 125I- uptake assay, NCCcryo construct. The class given is cell-based. The following applies: thiazide-sensitive iodide uptake; hNCC with DrNKCC1 NTD and E240A. Here is the method:
The NCCcryo construct consists of human NCC with its NTD (first 131 residues) replaced by that of zebrafish NKCC1 (first 202 residues), along with an E240A mutation and a Strep-tag II[69] at the N-terminus. The codon-optimized NCCcryo was cloned into a modified BacMam vector[70], which was then used for generating baculoviruses. HEK293S cells (3.0–3.5 × 10^6 cells per mL) were infected with the baculoviruses for NCCcryo, with sodium butyrate (10 mM) added 12–15 h afterwards, and the incubation temperature reduced to 30 °C. Two days after the addition of sodium butyrate, HEK293S cells were harvested.
HEK293S cell lines, cultured in 293 Freestyle medium (Life Technologies; plus 10% fetal bovine serum), stably expressing hNCC and its variants were generated following published protocols. Cells were transfected using Lipofectamine 3000 (Invitrogen) with a pSBbi-RP-based plasmid containing hNCC or its variants and the SB100X vector. Puromycin (2 μg/mL; Gemini Bio-Products) was used for selection of stable cell lines.
To prepare for the uptake experiment, cells were plated at 0.5 × 10^6 cells/well in 24-well plates one day in advance. […] Cells lysed using 1% sodium dodecyl sulfate (SDS) were analyzed by scintillation counting. […]

`NS(=O)(=O)c1cc(C2(O)NC(=O)c3ccccc32)ccc1Cl` (centres unmarked) [chlorthalidone]: half-maximal inhibition (IC50) required 20 nM.
To `CC1Cc2ccccc2N1NC(=O)c1ccc(Cl)c(S(N)(=O)=O)c1` (centres unmarked) [indapamide] belongs 9.1 nM.

A word on the IC50: it is the concentration that inhibits the measured activity by half. Low values mean greater potency in that assay, high ones weaker potency in that assay.

Source of the values: article PMC12365235, “Molecular mechanisms of thiazide-like diuretics-mediated inhibition of the human Na-Cl cotransporter” (Nature Communications, 2025).
